Source: patent US8163901B2, “Amide derivatives as ion-channel ligands and pharmaceutical compositions and methods of using the same” (Evotec AG, priority 2008, dated 2012)

Tests used:
Assay type in all cases: cell-based
hVR1 [1] = molecular target: T1, hVR1 (Homo sapiens, UniProt Q8NER1); assay: Calcium uptake assay (FLIPR), inhibition of low pH (proton)-induced calcium influx; details: agonist protons, low pH solution pH 5.7; cells expressing hVR1
T1 construct: R710-07 (T-REx host cell line); host or cells: T-REx System cell line, called 'human keratinocyte cell line' and 'HEK 293 cells'
T1 sequence (Q8NER1 whole entry): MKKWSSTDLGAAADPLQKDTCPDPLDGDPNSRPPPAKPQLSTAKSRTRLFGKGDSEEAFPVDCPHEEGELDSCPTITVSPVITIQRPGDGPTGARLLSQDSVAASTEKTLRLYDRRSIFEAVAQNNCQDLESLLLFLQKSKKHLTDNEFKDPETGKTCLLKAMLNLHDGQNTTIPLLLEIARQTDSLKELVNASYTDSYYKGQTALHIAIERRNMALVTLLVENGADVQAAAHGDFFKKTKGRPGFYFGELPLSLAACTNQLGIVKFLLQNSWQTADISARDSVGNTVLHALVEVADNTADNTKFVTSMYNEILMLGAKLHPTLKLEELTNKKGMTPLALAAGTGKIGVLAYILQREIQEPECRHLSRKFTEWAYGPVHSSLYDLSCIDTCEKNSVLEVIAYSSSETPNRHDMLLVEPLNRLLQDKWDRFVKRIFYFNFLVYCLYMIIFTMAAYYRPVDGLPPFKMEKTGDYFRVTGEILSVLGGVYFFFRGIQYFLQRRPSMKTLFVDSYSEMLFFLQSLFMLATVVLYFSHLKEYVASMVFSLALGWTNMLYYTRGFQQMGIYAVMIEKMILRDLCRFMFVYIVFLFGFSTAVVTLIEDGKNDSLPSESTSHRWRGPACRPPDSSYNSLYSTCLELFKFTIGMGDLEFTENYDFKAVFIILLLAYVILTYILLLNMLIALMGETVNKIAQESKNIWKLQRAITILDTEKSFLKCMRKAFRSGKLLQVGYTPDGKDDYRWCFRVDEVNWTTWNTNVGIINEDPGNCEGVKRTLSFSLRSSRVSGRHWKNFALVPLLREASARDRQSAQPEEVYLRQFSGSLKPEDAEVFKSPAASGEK
Experimental: (§1) Functional activity of compounds against the VR1 receptor was determined by measuring changes in intracellular calcium in HEK 293 cells expressing hVR1. Compounds were examined for their ability to inhibit agonist-induced calcium influx. Relative levels of [Ca^2+] were monitored in a 96-well format using a calcium-sensitive fluorescence dye and a FLIPR TETRA, Molecular Devices.
(§2) Cells that express high levels of VR1 were obtained by generation of a cell line from human keratinocytes with heterologous expression of VR1 under control of an inducible promoter. Specifically, cells expressing human VR1 under the control of the human cytomegalovirus immediate-early (CMV) promoter and two tetracycline operator 2 (TetO2) sites were made using the T-REx System (Invitrogen, Carlsbad, Calif., USA). Details and methods concerning this system are published (Hum. Gene Ther. 9, pp. 1939-1950, 1998; Annu. Rev. Microbiol. 48, pp. 345-369, 1994; Mol. Biol. 169, pp. 707-'721, 1983). Human VR1 was subcloned into the T-REx System pcDNA5/TO vector (Invitrogen Cat# V1033-20) which was transfected into the T-REx System human keratinocyte cell line (Invitrogen Cat# R710-07) from which a stable cell line was established which expresses VR1 after induction by exposure to tetracycline or doxycycline (Hum. Gene Ther. 9, pp. 1939-1950, 1998; instructions that come with purchase of products noted above). Cells were maintained in a CO2 incubator (5% CO2) at 37° C. in culture medium containing DMEM with phenol red (Mediatech Cat #: 15-017-CV) supplemented with 10% heat-inactivated Fetal Bovine Serum, 5% Penicillin-streptomycin (Mediatech Cat #: 30-002-CI), 5% Glutamax® (L-Alanyl-L-Glutamine, Mediatech Cat #: 25-015-CI), 200 μg/ml hygromycin (Mediatech #:30-240-CR), 0.5 μg/ml blasticidin (Invitrogen #46-1120)).
For assay preparation, cells expressing human VR1 as described above were plated in 96-well plates (Becton Dickinson [BD] poly-D-lysine coated 96-well plates, cat #356692) at 55,000 cells per well in culture media (described above) that also contained 1 ug/ml doxycycline. Plated cells were then placed in an incubator (5% CO2) and incubated for 20-26 hours at 37° C., until the cells had grown to near confluency. Media was then aspirated from cells and 50 uL of dye-containing buffer (from Molecular Devices FLIPR Calcium 4 Assay kit, cat# R8141) was added to each well. Cells were then left in the dark at room temperature for 1.5-2 hours. Cell plates were then placed in the FLIPR TETRA (Molecular Devices, CA, USA). Test compounds and agonists were added to wells using the liquid handling capability of the FLIPR TETRA. Calcium responses of the cells were monitored by fluorescence readout of dye signal. Test compounds in saline (130 mM NaCl, 17 g/L sucrose, 1.8 g/L glucose, 8.8 mM HEPES, 3 mM KCl, 0.60 mM MgCl, 1.0 mM CaCl2; adjust to pH 7.4 using NaOH; 0.03% BSA added on the day of the experiment), or vehicle control in saline, were pre-incubated at the desired final concentrations in the dark at room temperature for 2 or 30 minutes with cells already containing the above mentioned dye buffer (dye solution was diluted 1:1 in culture wells with saline containing 2× the final concentration of test compound). Compound IC50 experiments were run using an agonist concentration at or near the EC50 of the agonist. […] Another agonist was protons via a low pH solution (saline solution described above plus 10 mM citric acid buffered to pH 5.7 with HCl instead of buffering to a neutral pH with NaOH as done for normal saline). Compounds were tested at various concentration ranges, depending upon potency of compound. After the 2 minute or 30 minute compound pre-treatment, treatment solution was then added to cells by adding a volume of treatment solution equal to the pretreatment solution already on the cells. […]

hVR1 [2] = molecular target: T1, hVR1; assay: Determination of pA2 values against capsaicin stimulation (Ca2+ imaging, Schild analysis)
Experimental: Changes in the fluorescence signal (λex=470-495 nm, λem=515-575 nm) are monitored throughout the experiment before agonist addition and for at least 2 min after agonist addition (enough time for the fluorescence response to reach and then decline from the absolute maximum, agonist-induced signal attained). For each well, final relative fluorescence units (RFUs) are calculated as the difference between the maximum fluorescence signal obtained in the experiment after agonist addition and the signal level seen at baseline before agonist, but after antagonist, addition (the absolute minimum level of fluorescence signal observed in the 10 seconds prior to agonist addition). […] Data are fit to an ideal curve utilizing the 4-parameter sigmoid curve-fit function in GraphPad Prism software (version 4, GraphPad Software, Inc., San Diego, Calif., USA) from which an EC50 value is obtained. […] For each antagonist, at least three concentrations are tested. Dose Ratio values are then used to make a standard Schild plot—log [antagonist concentration] plotted against log [DR−1], see Kenakin reference above for theoretical background and method. A linear regression curve-fit is then performed on these plotted points. […] If these conditions are not met, then the antagonist is rerun in a pA2 assay using different antagonist concentrations until the above conditions are met.

hVR1 [3] = molecular target: T1, hVR1; assay: Calcium uptake assay (FLIPR), inhibition of capsaicin-induced calcium influx
Experimental: as §1, §2
For assay preparation, cells expressing human VR1 as described above were plated in 96-well plates (Becton Dickinson [BD] poly-D-lysine coated 96-well plates, cat #356692) at 55,000 cells per well in culture media (described above) that also contained 1 ug/ml doxycycline. Plated cells were then placed in an incubator (5% CO2) and incubated for 20-26 hours at 37° C., until the cells had grown to near confluency. Media was then aspirated from cells and 50 uL of dye-containing buffer (from Molecular Devices FLIPR Calcium 4 Assay kit, cat# R8141) was added to each well. Cells were then left in the dark at room temperature for 1.5-2 hours. Cell plates were then placed in the FLIPR TETRA (Molecular Devices, CA, USA). Test compounds and agonists were added to wells using the liquid handling capability of the FLIPR TETRA. Calcium responses of the cells were monitored by fluorescence readout of dye signal. Test compounds in saline (130 mM NaCl, 17 g/L sucrose, 1.8 g/L glucose, 8.8 mM HEPES, 3 mM KCl, 0.60 mM MgCl, 1.0 mM CaCl2; adjust to pH 7.4 using NaOH; 0.03% BSA added on the day of the experiment), or vehicle control in saline, were pre-incubated at the desired final concentrations in the dark at room temperature for 2 or 30 minutes with cells already containing the above mentioned dye buffer (dye solution was diluted 1:1 in culture wells with saline containing 2× the final concentration of test compound). […] Another agonist was protons via a low pH solution (saline solution described above plus 10 mM citric acid buffered to pH 5.7 with HCl instead of buffering to a neutral pH with NaOH as done for normal saline). Compounds were tested at various concentration ranges, depending upon potency of compound. After the 2 minute or 30 minute compound pre-treatment, treatment solution was then added to cells by adding a volume of treatment solution equal to the pretreatment solution already on the cells.

Row | Compound | IC50 (hVR1 [1]) | Kb (hVR1 [2]) | IC50 (hVR1 [3])
1 | C[C@@H](NC(=O)[C@@H]1CCc2nc(C(C)(C)C(F)(F)F)ccc2C1)c1ccc2[nH]ncc2c1 [Compound 11, (R)-2-(2,2,2-Trifluoro-1,1-dimethyl-ethyl)-5,6,7,8-tetrahydro-quinoline-6-carboxylic acid [(R)-1-(1H-indazol-5-yl)-ethyl]-amide] | 23 nM | 1.79 nM | 9 nM
2 | CC(NC(=O)C1CN(C)c2cc(C(F)(F)F)ccc2O1)c1ccc2[nH]ncc2c1 (mixture of isomers) [Compound 9, 4-Methyl-6-trifluoromethyl-3,4-dihydro-2H-benzo[1,4]oxazine-2-carboxylic acid [1-(1H-indazol-5-yl)ethyl]amide] | 117 nM | 34.7 nM | 42 nM
3 | CC(C)(c1ccc2c(n1)CC[C@@H](C(=O)Nc1cnc3c(c1)COCC3)C2)C(F)(F)F (single isomer, unassigned) [Compound 18] | 18 nM | 32 nM | 6 nM
4 | CC(C)(c1ccc2c(n1)CC[C@@H](C(=O)Nc1cnc3sc(CO)nc3c1)C2)C(F)(F)F [Compound 15, (R)-2-(2,2,2-Trifluoro-1,1-dimethyl-ethyl)-5,6,7,8-tetrahydro-quinoline-6-carboxylic acid (2-hydroxymethyl-thiazolo[5,4-b]pyridin-6-yl)-amide] | 18 nM | 5.05 nM | 19 nM
5 | C[C@@H](NC(=O)[C@H]1CCc2nc(C(C)(C)C(F)(F)F)ccc2C1)c1ccc2[nH]ncc2c1 [Compound 12, (S)-2-(2,2,2-Trifluoro-1,1-dimethyl-ethyl)-5,6,7,8-tetrahydro-quinoline-6-carboxylic acid [(R)-1-(1H-indazol-5-yl)-ethyl]-amide] | 6 nM | 0.208 nM | 2 nM
6 | CC(=O)N1CCc2ccc(NC(=O)[C@@H]3CCc4nc(C(C)(C)C(F)(F)F)ccc4C3)cc21 [Compound 23, (R)-2-(2,2,2-Trifluoro-1,1-dimethyl-ethyl)-5,6,7,8-tetrahydro-quinoline-6-carboxylic acid (1-acetyl-2,3-dihydro-1H-indol-6-yl)-amide] | 9 nM | 5.91 nM | 2 nM
7 | CC(C)(c1ccc2c(n1)CC[C@H](C(=O)Nc1cnc3c(c1)COCC3)C2)C(F)(F)F (single isomer, unassigned) [Compound 19] | 67 nM | 17 nM | 9 nM
